{"source": "patent US20150196638A1", "about": "“SYSTEM AND METHOD FOR USING ULTRASOUND-STIMULATED MICROBUBBLE EXPOSURES TO INDUCE CERAMIDE ACCUMULATION IN ENDOTHELIAL AND TUMOR CELLS” (priority 2012, published 2015)", "key": {"asmase +/+ astrocytes": {"tested_on": "asmase +/+ astrocytes", "assay": "Clonogenic survival assay, asmase +/+ astrocytes", "assay_type": "cell-based, mouse", "protocol": "All cells were grown at 37 degrees Celsius with 5% CO2. Primary astrocytes (obtained from asmase +/+ and asmase −/− mouse brains, Sunnybrook Health Sciences Centre, Toronto, ON) were cultured in DMEM with 10% fetal bovine serum (FBS) and 5% Penicillin. HUVEC cells (Sunnybrook Health Sciences Centre, Toronto, ON, Canada) were grown in EBM-2 (Lonza, Walkersville, Md. USA) supplemented with 10 ml FBS, 0.2 ml Hydrocortisone, 2 ml hFGF-B, 0.5 ml VEGF, 0.5 ml R3-IGF-1, 0.5 ml ascorbic acid, 0.5 ml hEGF, 0.5 ml GA-1000 and 0.5 ml Heparin using EGM-2 singlequots kits. Breast and PC3 cells were grown in 1640-RPMI medium (Sigma-Aldrich Canada Inc., Oakville, ON, Canada), leukemia (AML, Ontario Cancer Institute, Toronto, ON), and KHT sarcoma cells (Sunnybrook Health Science Centre) were grown in α-MEM (Sigma-Aldrich Canada Inc., Oakville, ON), all with 10% FBS and 5% penicillin. In order to harvest adherent cells, confluent flasks were PBS washed, after which 0.05% trypsin EDTA (Gibco, Carlsbad, Calif. USA) was added for 5 minutes to detach cells. After trypsinization, cells were centrifuged at 440 g for 10 minutes and brought to a final cell concentration of 2×10̂6 cells/ml of medium with 1.5 ml aliquots used for each treatment (i.e., 3×10̂6 cells/sample). In all experiments cells were carefully handled to avoid clumping after typrinsization and this was verified by microscopy in advance of ultrasound treatments.\nFor ultrasound treatments, a pulse was generated by a 2.86 cm-diameter single element transducer (IL0509HP, 500 kHz center frequency, Valpey-Fisher Inc., Hopkinton, Mass., USA) connected to a micro-positioning system. The set-up also included a cylindrical chamber (10 mm diameter) for cell exposure. The chamber had mylar windows on both sides and a magnetic stirrer to mix cells and bubbles during ultrasound exposure in order to avoid standing wave effects.\nIn order to treat the cells, 50 μL of 45 seconds agitated vial-mix DEFINITY® microbubbles (Perflutren lipid microspheres, Lantheus Medical Imaging, Billerica, Mass. USA) and 1.5 ml of the 2×10̂6 cells/ml solution were added to the chamber (for a 3.3% v/v bubbles concentration). Insonification took place using a peak negative pressure of 570 kPa using a pulse sequence with a 9.6% duty cycle composed of a 16 cycle tone burst and a pulse repetition frequency of 3 kHz, for a total insonification time of 2,880 milliseconds over 30 seconds. The −6 dB beamwidth for this transducer was […] and the −3 dB beamwidth was 18 mm. Transducer characteristics were measured using a calibrated hydrophone in the absence and presence of the treatment set-up.\nSphingosine-1-Phosphate (S1P) (Biomol International L.P., Plymouth Meeting, Pa. USA) was used to counteract the mechanisms leading to ceramide-mediated apoptotic cell death. In order to treat cells, 1 μM S1P was added to asmase +/+ and asmase −/− culture media one hour before damage treatments with radiation or ultrasound, and was present during trypsinization, and for clonogenic survival assays in media. The rationale for this was that any activation of ceramide-dependent cell death by treatment may take many hours to manifest and should be inhibited long term. Treatment of cells with C2-Ceramide (Sigma-Aldrich) was carried out similarly.\nRadiation treatments were carried out by exposing samples to X-ray ionizing radiation (Faxitron Cabinet X-ray, Faxitron X-Ray LLC, IL) at a dose rate of 200 cGy/minute. […]"}, "HUVEC cells": {"tested_on": "HUVEC cells", "assay": "Clonogenic survival assay, HUVEC", "assay_type": "cell-based", "settings": "1 μM", "protocol": "All cells were grown at 37 degrees Celsius with 5% CO2. Primary astrocytes (obtained from asmase +/+ and asmase −/− mouse brains, Sunnybrook Health Sciences Centre, Toronto, ON) were cultured in DMEM with 10% fetal bovine serum (FBS) and 5% Penicillin. HUVEC cells (Sunnybrook Health Sciences Centre, Toronto, ON, Canada) were grown in EBM-2 (Lonza, Walkersville, Md. USA) supplemented with 10 ml FBS, 0.2 ml Hydrocortisone, 2 ml hFGF-B, 0.5 ml VEGF, 0.5 ml R3-IGF-1, 0.5 ml ascorbic acid, 0.5 ml hEGF, 0.5 ml GA-1000 and 0.5 ml Heparin using EGM-2 singlequots kits. Breast and PC3 cells were grown in 1640-RPMI medium (Sigma-Aldrich Canada Inc., Oakville, ON, Canada), leukemia (AML, Ontario Cancer Institute, Toronto, ON), and KHT sarcoma cells (Sunnybrook Health Science Centre) were grown in α-MEM (Sigma-Aldrich Canada Inc., Oakville, ON), all with 10% FBS and 5% penicillin. […]\nIn order to treat the cells, 50 μL of 45 seconds agitated vial-mix DEFINITY® microbubbles (Perflutren lipid microspheres, Lantheus Medical Imaging, Billerica, Mass. USA) and 1.5 ml of the 2×10̂6 cells/ml solution were added to the chamber (for a 3.3% v/v bubbles concentration). […] Transducer characteristics were measured using a calibrated hydrophone in the absence and presence of the treatment set-up. […]"}, "[1]": {"tested_on": "ceramide in PC3 prostate tumors", "assay": "In vivo ceramide immunohistochemistry staining", "design": "species or system mice", "settings": "4 μg IV; 2 or 8 Gy with high microbubble concentration", "text": "(A) Quantification of ceramide immunohistochemistry staining of sections of PC3 prostate tumors treated with radiation and/or ultrasound-activated microbubbles. Labels indicate non (Nil), low (Low) and high concentration microbubble exposure (High) and radiation doses (0, 2 or 8 Gy). (B) Quantification of ceramide immunohistochemistry staining for experiments with S1P.\nIn order to test if ultrasound-stimulated microbubbles in combination with ultrasound could stimulate ceramide formation, experiments were carried out using an additional cohort of 75 animals, with five mice per group. Mice were treated as above with no microbubbles, low, and high bubble concentrations in the presence of ultrasound and combined with 0, 2, and 8 Gy radiation doses given in single fractions as above for nine cohorts of n=5 animals. In addition, 0, 2, and 8 Gy conditions with and without high-concentration microbubble exposure in the presence of ultrasound were carried out in the presence of S1P using modified protocols. This used six cohorts of n=5 mice.\nFor S1P treatments, 4 μg of S1P in 0.2 mL of PET (5% polyethylene glycol, 2.5% ethanol, and 0.8% Tween-80) was injected intravenously in mice 30 min prior to and 5 min after irradiation or after microbubble exposure with ultrasound and irradiation."}, "[2]": {"tested_on": "Human PC3 prostate cancer xenografts", "assay": "ISEL / H&E cell death histology of PC3 xenograft tumors (Example 1)", "assay_type": "in vivo, mice", "protocol": "Human PC3 prostate cancer (ATCC) xenografts were grown in the hind upper leg of SCID-17 mice (Charles River) by injecting 1.0×10̂6 RPMI-1640 media cultured cells subcutaneously (Wisent Biocentre), with 10% characterized serum (HyClone), and 100 U/mL of penicillin/streptomycin (Invitrogen). Tumors were grown to 7-8 mm diameter size before treatment. For treatments, ketamine and xylazine anesthetized mice were used. Vialmix device-prepared DEFINITY® (Lantheus Medical Imaging; N. Billerica, Mass.) microbubbles (perfluoropropane gas/liposome shell) were administered at doses of 3.6×10̂8 microbubbles (L, low dose) and 1.08×10̂9 microbubbles (H, high dose) in […] volumes of prepared bubbles, respectively. The final circulating concentrations were selected to be higher (100- and 300-fold, respectively) than the diagnostic dose used to ensure efficient interactions of the bubbles and microvascular walls.\nMice were immersed in a 37 degree Celsius water bath to permit ultrasound treatment and centered on the tumor. For ultrasound exposures, a focused central frequency 500-kHz transducer (IL0509HP; ValpeyFisher Inc.) with a 28.6-mm transducer element diameter was used. This was attached to a micropositioning system, and excited with sinusoidal wave generated by a waveform generator (AWG520; Tektronix), a pulse-receive power amplifier (RPR4000; Ritec Inc.), and a digital-acquisition system (Acquiris CC103, Agiulent Technologies NY). Tumors were exposed over 50 ms to a 16-cycle tone burst at 500-kHz and 3-kHz pulse repetition frequencies with a 10% duty cycle during the 50-ms window. Treatments were for 5 min, amounting to a 750-ms exposure over 5 min for all mouse treatments, with an average duty cycle of 0.25%. Specifically, at 500 kHz the pulse bandwidth of the 16-cycle tone burst was 0.032 ms. The pulse repetition period (3-KHz pulse repetition frequency) was 0.333,ms, which, over 50 ms, corresponded to 150 periods of 16-cycle tone burst or 4.8 ms (rounded to 5 ms). […] The ultrasound peak negative pressure was 570 kPa measured with a calibrated hydrophone. […]"}}, "data": [{"compound": "CCCCCCCCCCCCC/C=C/[C@@H](O)[C@H](CO)NC(C)=O", "note": "[C2-Ceramide]", "values": [{"measurement": "cell kill", "setting": "asmase +/+ astrocytes; 1 μM", "result": "no significant cell kill"}, {"measurement": "survival", "setting": "asmase +/+ astrocytes; ceramide alone as a control", "result": "50±5", "unit": "%"}, {"measurement": "survival on ceramide exposure", "setting": "HUVEC cells", "result": "did not survive"}]}, {"compound": "CCCCCCCCCCCCC/C=C/[C@@H](O)[C@@H](N)COP(=O)(O)O", "note": "[S1P, Sphingosine-1-Phosphate]", "values": [{"measurement": "ceramide increases in the presence of S1P", "setting": "[1]", "result": "increases were not apparent"}, {"measurement": "protective effect on survival", "setting": "asmase +/+ astrocytes; 1 μM, cells treated with either radiation or ultrasound with microbubbles", "result": "no protective effect"}, {"measurement": "protective effect on survival", "setting": "asmase +/+ astrocytes; 1 μM, ultrasound and microbubbles prior to radiation", "result": "protection was detected"}, {"measurement": "radioresistance of wild-type astrocytes", "setting": "asmase +/+ astrocytes; S1P-treated, radiation", "result": "conferred some radioresistance"}, {"measurement": "protection from apoptosis", "setting": "HUVEC cells; radiation or ultrasound and microbubbles, p<0.01", "result": "significantly protected"}, {"measurement": "effect on apoptotic cell death induced by microbubbles and radiation", "setting": "[2]; 4 μg IV 30 min before and 5 min after treatments, 0, 2, 8 Gy with or without high microbubbles", "result": "diminishment of detected apoptotic cell death"}]}, {"compound": "bFGF: basic fibroblast growth factor (Sigma), a known endothelial cell protector", "values": [{"measurement": "effect of pre-treatment on microbubble-induced cell death", "setting": "[2]; 0.45 μg IV 1 hour before microbubbles (1% vol/vol) with ultrasound", "result": "diminished the cell death"}, {"measurement": "cell death, bFGF-treated animals with ultrasound-stimulated microbubbles versus untreated control", "setting": "[2]; 0.45 μg IV, P=0.24", "result": "no difference"}]}]}
